Experimental data reported in US10544117B2, “5-hydroxytryptamine receptor 7 activity modulators and their method of use” (Temple University—Of the Commonwealth System of Higher …, priority 2014, dated 2020).

Biological target: Serotonin 5HT7 receptors (Homo sapiens (Human), UniProt P34969)
Test: Radiolabel Binding Studies for Serotonin 5HT7 receptors
Details: for IC50: membranes of cells expressing recombinant 5HT7 receptors; for inhibition at 10 µM: read-out: 5-HT7 % inhib @ 10 uM
Description: Radiolabel Binding Studies for Serotonin 5HT7 receptors, method 1:
Eleven dilutions (5× assay concentration) of the compound of the disclosure and chlorpromazine are prepared in the Assay Buffer by serial dilution to yield final corresponding assay concentrations ranging from 10 pM to 10 μM.
(§1) A stock concentration of 5 nM [^3H]LSD (lysergic acid diethyl amide) is prepared in 50 mM Tris-HCl, 10 mM MgCl2, 1 mM EDTA, pH 7.4 (Assay Buffer). Aliquots (50 μl) of radioligand are dispensed into the wells of a 96-well plate containing 100 μl of Assay Buffer. Duplicate 50-μl aliquots of the compound of the disclosure test and chlorpromazine positive control reference compound serial dilutions are added.
Membrane fractions of cells expressing recombinant 5HT7 receptors (50 μL) are dispensed into each well. The membranes are prepared from stably transfected cell lines expressing 5HT7 receptors cultured on 10-cm plates by harvesting PBS-rinsed monolayers, resuspending and lysing in chilled, hypotonic 50 mM Tris-HCl, pH 7.4, centrifuging at 20,000×g, decanting the supernatant and storing at −80° C.; the membrane preparations are resuspended in 3 ml of chilled Assay Buffer and homogenized by several passages through a 26 gauge needle before using in the assay.
The 250-μl reactions are incubated at room temperature for 1.5 hours, then harvested by rapid filtration onto 0.3% polyethyleneimine-treated, 96-well filter mats using a 96-well Filtermate harvester. Four rapid 500-μl washes are performed with chilled Assay Buffer to reduce non-specific binding. The filter mats are dried, then scintillant is added to the filters and the radioactivity retained on the filters is counted in a Microbeta scintillation counter.
Raw data (dpm) representing total radioligand binding (i.e., specific+non-specific binding) are plotted as a function of the logarithm of the molar concentration of the competitor (i.e., test or reference compound).
Radiolabel Binding Studies for Serotonin 5-HT7 receptors, method 2:
as §1, with “[^3H]-5-Hydroxytryptamine ([^3H]-5HT)” for “[^3H]LSD (lysergic acid diethyl amide)”

SMILES	IC50	5-HT7 % inhib @ 10 uM (single concentration of 10 uM, percent inhibition of radioligand binding)	inhibition at 10 µM
O=C1OC(CCN2CCN(c3ccc(Cl)cn3)CC2)CC12CCCCC2 (centres unmarked) [Entry 160145]	33 nM	96.7%	–
O=C1OC(CCN2CCN(c3ccc4[nH]ccc4c3)CC2)CC12CCCCC2 (centres unmarked) [Entry 160146]	65.3 nM	–	97.9%
O=C1OC(CCN2CCN(c3ccc4[nH]ccc4c3)CC2)CC12CCCC2 (centres unmarked) [Entry 160147]	–	–	9%
O=C1OC(CCN2CCN(c3ccc4[nH]ccc4c3)CC2)CC12CCC2 (centres unmarked) [Entry 160148]	88 nM	–	96.5%
Nc1cc(N2CCN(CCC3CC4(CCCCC4)C(=O)O3)CC2)ccc1[N+](=O)[O-] (centres unmarked) [Entry 160149]	500 nM	–	84.7%
O=C1OC(CCN2CCN(c3ccc4[nH]c(=O)[nH]c4c3)CC2)CC12CCCCC2 (centres unmarked) [Entry 160150]	1230 nM	–	76.9%
O=C1OC(CCN2CCN(c3ccc4[nH]c(=O)[nH]c4c3)CC2)CC12CCCC2 (centres unmarked) [Entry 160151]	–	–	35.9%
O=C1OC(CCN2CCN(c3ccc4[nH]c(=O)[nH]c4c3)CC2)CC12CCC2 (centres unmarked) [Entry 160152]	2250 nM	–	59.5%
O=C1OC(CCN2CCN(c3ccnc(Cl)c3)CC2)CC12CCCCC2 (centres unmarked) [Entry 160153]	4360 nM	–	58.2%
CS(=O)(=O)Nc1ccc(N2CCN(CCC3CC4(CCCC4)C(=O)O3)CC2)cc1 (centres unmarked) [Entry 230008]	–	–	33.2%
O=C1OC(CCN2CCN(c3cc(Cl)ccn3)CC2)CC12CCCC2 (centres unmarked) [Entry 230010]	–	–	33.5%
O=C1OC(CCN2CCN(c3ccnc(Cl)c3)CC2)CC12CCCC2 (centres unmarked) [Entry 230011]	–	–	40.3%
N#Cc1ccnc(N2CCN(CCC3CC4(CCCC4)C(=O)O3)CC2)c1 (centres unmarked) [Entry 230012]	436 nM	–	76.6%
COc1ccccc1N1CCN(CCC2CC3(CCCC3)C(=O)O2)CC1 (centres unmarked) [Entry 230013]	146 nM	–	90.9%
O=C1OC(CCN2CCN(c3ccccc3O)CC2)CC12CCCC2 (centres unmarked) [Entry 230014]	78 nM	–	91.5%
COc1ccccc1N1CCN(CCC2CC3(CCC3)C(=O)O2)CC1 (centres unmarked) [Entry 230015]	319 nM	–	83.4%

SMILES	IC50	5-HT7 % inhib @ 10 uM (single concentration of 10 uM, percent inhibition of radioligand binding)	inhibition at 10 µM
O=C1OC(CCN2CCN(c3ccccc3O)CC2)CC12CCC2 (centres unmarked) [Entry 230016]	299 nM	–	84.7%
COc1ccc(N2CCN(CC[C@@H]3CC(C)(C)C(=O)O3)CC2)cc1 [Entry 230039]	10000 nM	–	42.6%
COc1ccc(N2CCN(CC[C@H]3CC(C)(C)C(=O)O3)CC2)cc1 [Entry 230046]	10000 nM	–	53.5%
CCC1(CC)CC(CCCN2CCN(c3ccccc3)CC2)OC1=O (centres unmarked) [Entry 230057]	55 nM	–	98.5%
CCC1(CC)CC(CCCN2CCN(c3ccc(C#N)cc3)CC2)OC1=O (centres unmarked) [Entry 230058]	965 nM	–	78.6%
CCC1(CC)CC(CCCN2CCN(c3ccc(O)cc3)CC2)OC1=O (centres unmarked) [Entry 230059]	353 nM	–	88.8%
CCC1(CC)CC(CCCN2CCN(c3ccc(OC)cc3)CC2)OC1=O (centres unmarked) [Entry 230060]	10000 nM	–	43.6%
CCC1(CC)CC(CCCN2CCN(c3ccc(C)cc3)CC2)OC1=O (centres unmarked) [Entry 230061]	168 nM	–	94.9%
CCC1(CC)CC(CCCN2CCN(c3ccccc3C(C)C)CC2)OC1=O (centres unmarked) [Entry 230062]	12 nM	–	98.6%
CCC1(CC)CC(CCCN2CCN(c3ccccn3)CC2)OC1=O (centres unmarked) [Entry 230063]	93 nM	–	98.9%
CCC1(CC)CC(CCN2CCN(c3ccc4nc(C(F)(F)F)[nH]c4c3)CC2)OC1=O (centres unmarked) [Entry 230068]	10000 nM	–	44%
CCC1(CC)CC(CCN2CCN(c3ccc4nc(C)[nH]c4c3)CC2)OC1=O (centres unmarked) [Entry 230069]	10000 nM	–	–
CCC1(CC)CC(CCN2CCc3ccc(Cl)cc3C2)OC1=O (centres unmarked) [Entry 230070]	7.5 nM	–	100%
CCC1(CC)CC(CCN2CCc3ccc(F)cc3C2)OC1=O (centres unmarked) [Entry 230071]	9.9 nM	–	99.3%
CCC1(CC)C[C@H](CCN2CCN(c3ccncc3)CC2)OC1=O [Entry 230083]	5820 nM	–	51%
